Reference: US20250082633A1, “COMPOUNDS AND METHODS FOR MODULATING SPLICING” (REMIX THERAPEUTICS INC., priority 2021, published 2025)
pIC50: −log10 of the molar value. Structures can show the parent of a compound that is named as a salt. Where two headings read alike, the source gives them in different places.

Key:
[1] = system: HiBiT-tagged MYB protein in K562 cells; test: HiBit protein abundance assay, MYB; type: cell-based, human; conditions: K562 HiBiT-modified cells, 24 hours, luminescence
Procedure: Compounds described herein were used to screen for effects on quantitative protein abundance using a HiBit assay system (Promega). Quantitative protein abundance was determined by measuring the protein levels of HiBit-tagged protein targets expressed in cell culture via luminescence using the Nano-Glo HiBiT Lytic Detection System, which uses a split complementation assay format to reconstitute NanoBiT enzyme to generate a luminescent signal. A protein abundance assay was developed such that endogenous protein targets could be modified with the HiBiT peptide tag and their abundance could be assessed after compound treatment. Briefly, K562 cell lines containing a HiBiT-modification were treated with various compounds described herein (e.g., compounds of Formulas (I), (II), or (III)). After treatment for 24 hours, the protein abundance of a specific target was determined by measuring luminescence. • Promega Nano-Glo HiBiT Lytic Detection System (cat #N3030) • Corning 384-well TC-treated microplates (cat #3570) • Synthego Engineered Cells Knock-In Clones [table] Cells were maintained in IMDM with 10% FBS. Before the assay, cells were diluted with phenolphthalein-free growth media (IMDM+1% FBS media) and were seeded in a 384-well plate at a density of 10000 cells/well (for each cell line listed in Table 6). Each compound was prepared as a 10-point 3-fold serial dilution in DMSO with the top dose at a final concentration of 10 μM in the well. Unmodified K562 cells were added at the previously specified density with DMSO to serve as an assay baseline and positive control (PC) and DMSO only with the respective modified cell lines was added to the negative control (NC) columns. Final DMSO concentration was kept at or below 0.25%. Treated cell plates were placed in an incubator at 37° C. with 5% CO2 for 24 hours. After 24 hours, 25 μL of Complete HiBit Lytic reagent was added to each well at room temperature (e.g. one plate requiring 10 mL Lytic Buffer, 100 μL LgBiT Protein, 200 μL Lytic Substrate), shaken for 5 minutes at 600 RPM, then left to sit for 10 minutes for signal to stabilize before reading on a Spark Cyto plate reader (Tecan) with a 500 ms measurement time. To determine compound effects on protein abundance of each target in Table 6, the percent response for each respective cell line was calculated at each compound concentration as follows: For the normalized response at each concentration, a four-parameter logistical regression was fit to the data and the response was interpolated at the 50% value to determine a concentration for protein abundance at 50% (IC50) the untreated control.

HTT mRNA = test: RT-qPCR splicing assay, HTT canonical (CJ) and alternative (AJ) junction mRNA; type: cell-based; conditions: Homo sapiens; for pIC50: read-out: HTT CJ IC50; for AC50: read-out: HTT AJ AC50
Method in brief: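 Splice-junction mRNAs (CJ, AJ) measured by TaqMan one-step RT-qPCR on cell lysates, using PPIA as reference for adherent A673 and GAPDH or GUSB for K562. Cells exposed for 24 h to 11 threefold concentrations up to 10 uM final, with DMSO at or below 0.25%.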

[2] = decrease in CJ mRNA levels, larger panel of genes, Table 3
[3] = decrease in canonical junction mRNA, A673 or K562 cells, 24 hours treatment, Table 2
[4] = increase in alternative junction mRNA, A673 or K562 cells, 24 hours treatment, Table 2

| Compound | pIC50 [1] | pIC50 (HTT mRNA; [2]) | pIC50 (HTT mRNA; [3]) | AC50 (HTT mRNA; [4]) [nM] | AC50 (HTT mRNA; 24 h) [nM] | pIC50 (HTT mRNA; 24 h) | pIC50 (HTT mRNA) |
| --- | --- | --- | --- | --- | --- | --- | --- |
| Cc1c(O)c(-c2cc(F)c3nn(C4CCNCC4)cc3c2)cc2cn(C)nc12 [Compound 126, 5-[7-fluoro-2-(4-piperidyl)indazol-5-yl]-2,7-dimethyl-indazol-6-ol] | < 5.00 | 5.00 to 6.00 | 5.00 to 6.00 | > 10000 |  |  |  |
| Cn1cc2cc(-c3cc(F)c4nn(C5CCNCC5)cc4c3)cc(C#N)c2n1 [Compound 130, 5-[7-fluoro-2-(4-piperidyl)indazol-5-yl]-2-methyl-indazole-7-carbonitrile] | 6.00 to 7.00 | > 7.00 | > 7.00 | < 100 |  |  |  |
| Cc1cc(-c2cc(F)c3nn(C4CCNCC4)cc3c2)cc2cn(C)nc12 [Compound 133, 5-(2,7-dimethylindazol-5-yl)-7-fluoro-2-(4-piperidyl)indazole] | 6.00 to 7.00 | > 7.00 | > 7.00 | < 100 |  |  |  |
| Cc1nc2ccc(-c3cc(F)c4nn(C5CCNCC5)cc4c3)cc2s1 [Compound 134, 6-(7-fluoro-2-(piperidin-4-yl)-2H-indazol-5-yl)-2-methylbenzo[d]thiazole] | 5.00 to 6.00 | 5.00 to 6.00 | 5.00 to 6.00 | > 10000 |  |  |  |
| Cc1nc2c(F)cc(-c3cc(F)c4nn(C5CCNCC5)cc4c3)cc2o1 [Compound 136, 4-fluoro-6-[7-fluoro-2-(4-piperidyl)indazol-5-yl]-2-methyl-1,3-benzoxazole] | 6.00 to 7.00 | > 7.00 | > 7.00 | < 100 |  |  |  |
| Cc1cn2nc(-c3ccc4nn(C5CCNCC5)cc4n3)cc(C)c2n1 [Compound 138, 2,8-dimethyl-6-[2-(4-piperidyl)pyrazolo[4,3-b]pyridin-5-yl]imidazo[1,2-b]pyridazine] | 6.00 to 7.00 | > 7.00 | > 7.00 | 100 to 1000 |  |  |  |
| Cc1cn2nc(-c3cc4cn(C5CCNCC5)nc4c(O)n3)cc(C)c2n1 [Compound 139, 5-(2,8-dimethylimidazo[1,2-b]pyridazin-6-yl)-2-(4-piperidyl)-6H-pyrazolo[3,4-c]pyridin-7-one] | 6.00 to 7.00 | > 7.00 | > 7.00 | < 100 |  |  |  |
| COc1cc(-c2cc3cn(C)nc3cc2O)nc2cn(C3CCNCC3)nc12 [Compound 140, 5-[7-methoxy-2-(4-piperidyl)pyrazolo[4,3-b]pyridin-5-yl]-2-methyl-indazol-6-ol] | 5.00 to 6.00 | 5.00 to 6.00 | 5.00 to 6.00 | 1000 to 10000 |  |  |  |
| COC1=C(C)C2N=C(C)OC2C=C1c1cc(F)c2nn(C3CCNCC3)cc2n1 (centres unmarked) [Compound 144] | 5.00 to 6.00 | < 5.00 | < 5.00 | > 10000 |  |  |  |
| Cn1cc2cc(-c3cc(F)c4nn(C5CCNCC5)cc4c3)ccc2n1 [Compound 145, 7-fluoro-5-(2-methylindazol-5-yl)-2-(4-piperidyl)indazole] | 6.00 to 7.00 | 6.00 to 7.00 | 6.00 to 7.00 | 100 to 1000 |  |  |  |
| Cc1cn2nc(-c3cc4cn(C5CCNCC5)nc4cn3)cc(C)c2n1 [Compound 147, 2,8-dimethyl-6-[2-(4-piperidyl)pyrazolo[3,4-c]pyridin-5-yl]imidazo[1,2-b]pyridazine] | 6.00 to 7.00 | 6.00 to 7.00 | 6.00 to 7.00 | 100 to 1000 |  |  |  |
| Cn1cc2cc(-c3ccc4cn(C5CCNCC5)nc4c3)cc(F)c2n1 [Compound 148, 7-fluoro-2-methyl-5-[2-(4-piperidyl)indazol-6-yl]indazole] | < 5.00 | 5.00 to 6.00 | 5.00 to 6.00 | > 10000 |  |  |  |
| Cc1cn2nc(-c3cc(F)c4nn(C5CCN(CC6CC6)CC5)cc4c3)cc(C)c2n1 [Compound 149, 6-[2-[1-(cyclopropylmethyl)-4-piperidyl]-7-fluoro-indazol-5-yl]-2,8-dimethyl-imidazo[1,2-b]pyridazine] | 6.00 to 7.00 | > 7.00 | > 7.00 | < 100 |  |  |  |
| Cc1cn2nc(-c3cc(F)c4nn(C5CCN(C6CCC6)CC5)cc4c3)cc(C)c2n1 [Compound 151, 6-[2-(1-cyclobutyl-4-piperidyl)-7-fluoro-indazol-5-yl]-2,8-dimethyl-imidazo [1,2-b] pyridazine] | > 7.00 |  |  |  | < 100 | > 7.00 | > 7.00 |
| Cc1cn2nc(-c3cc4cn(C5CCNCC5)nc4c(OCc4ccccc4)n3)cc(C)c2n1 [Compound 153, 6-[7-benzyloxy-2-(4-piperidyl)pyrazolo [3,4-c]pyridin-5-yl]-2,8-dimethyl-imidazo[1,2-b]pyridazine] | 5.00 to 6.00 | < 5.00 | < 5.00 | 1000 to 10000 |  |  |  |
| Cc1cn2nc(-c3cc4cn(C5CCNCC5)nc4cc3O)cc(C)c2n1 [Compound 154, 5-(2,8-dimethylimidazo[1,2-b]pyridazin-6-yl)-2-(piperidin-4-yl)-2H-indazol-6-ol] | 6.00 to 7.00 | > 7.00 | > 7.00 | 100 to 1000 |  |  |  |
| COc1cc(-c2cc(C)c3nc(C)cn3n2)cc2cn(C3CCNCC3)nc12 [Compound 155, 6-(7-methoxy-2-(piperidin-4-yl)-2H-indazol-5-yl)-2,8-dimethylimidazo [1,2-b]pyridazine] | 6.00 to 7.00 | > 7.00 | > 7.00 | 100 to 1000 |  |  |  |

Now from value to compound, other results behind:

| pIC50 [1] | pIC50 (HTT mRNA; [2]) | pIC50 (HTT mRNA; [3]) | Compound | AC50 (HTT mRNA; [4]) [nM] | AC50 (HTT mRNA; 24 h) [nM] | pIC50 (HTT mRNA; 24 h) | pIC50 (HTT mRNA) |
| --- | --- | --- | --- | --- | --- | --- | --- |
| 6.00 to 7.00 | > 7.00 | > 7.00 | Cc1cn2cc(-c3cc(F)c4nn(C5CCNCC5)cc4c3)cc(Cl)c2n1 [Compound 127, 5-(8-chloro-2-methylimidazo[1,2-a]pyridin-6-yl)-7-fluoro-2-(piperidin-4-yl)-2H-indazole hydrochloride salt] | 100 to 1000 |  |  |  |
| 6.00 to 7.00 | > 7.00 | > 7.00 | Cc1cn2cc(-c3cc(F)c4nn(C5CCNCC5)cc4c3)cc(F)c2n1 [Compound 129, 7-fluoro-5-(8-fluoro-2-methylimidazo[1,2-a]pyridin-6-yl)-2-(piperidin-4-yl)-2H-indazole] | < 100 |  |  |  |
| 5.00 to 6.00 | 6.00 to 7.00 | 6.00 to 7.00 | Cc1cn2cc(-c3cc(F)c4nn(C5CCNCC5)cc4c3)nc(C)c2n1 [Compound 132, 6-[7-fluoro-2-(4-piperidyl)indazol-5-yl]-2,8-dimethyl-imidazo[1,2-a]pyrazine] | 100 to 1000 |  |  |  |
| 6.00 to 7.00 | 6.00 to 7.00 | 6.00 to 7.00 | Cc1nc2ccc(-c3cc(F)c4nn(C5CCNCC5)cc4c3)cc2o1 [Compound 135, 6-[7-fluoro-2-(4-piperidyl)indazol-5-yl]-2-methyl-1,3-benzoxazole] | 100 to 1000 |  |  |  |
| 6.00 to 7.00 | > 7.00 | > 7.00 | Cc1nc2c(C)cc(-c3cc(F)c4nn(C5CCNCC5)cc4c3)cc2o1 [Compound 137, 6-[7-fluoro-2-(4-piperidyl)indazol-5-yl]-2,4-dimethyl-1,3-benzoxazole] | < 100 |  |  |  |
| < 5.00 | < 5.00 | < 5.00 | Cn1cc2cc(-c3cc(Cl)c4nn(C5CCNCC5)cc4n3)c(O)cc2n1 [Compound 141] | > 10000 |  |  |  |
| 6.00 to 7.00 | > 7.00 | > 7.00 | CCN1CCC(n2cc3cc(-c4cc(C)c5nc(C)cn5n4)cc(F)c3n2)CC1 [Compound 146, 6-[2-(1-ethyl-4-piperidyl)-7-fluoro-indazol-5-yl]-2,8-dimethyl-imidazo[1,2-b]pyridazine] | < 100 |  |  |  |
| 6.00 to 7.00 | > 7.00 | > 7.00 | Cc1cn2nc(-c3cc(F)c4nn(C5CCN(C)CC5)cc4c3)cc(C)c2n1 [Compound 150, 6-[7-fluoro-2-(1-methyl-4-piperidyl)indazol-5-yl]-2,8-dimethyl-imidazo[1,2-b]pyridazine] | < 100 |  |  |  |
| 6.00 to 7.00 | > 7.00 | > 7.00 | Cc1cn2nc(-c3cc(F)c4nn(C5CCN(CCF)CC5)cc4c3)cc(C)c2n1 [Compound 152] | 100 to 1000 |  |  |  |
